Assay results published in patent US10350271B2, “Lipidated peptides for lowering blood glucose” (USTAV ORGANICKE CHEMIE A BIOCHEMIE AKADEMIE VED CR, V.V.I., priority 2014, dated 2019).
Square brackets hold non-standard residues; d marks the D form. Peptide text beside a SMILES is read from it. * marks the point of attachment. Myristoyl = CCCCCCCCCCCCCC(=O)*; NMeA = CN[C@@H](C)C(=O)O; Sar = CNCC(=O)O

How the values were obtained:
rat PrRP receptor = target: T1, rat PrRP receptor (Rattus norvegicus, UniProt Q64121); test: Competitive binding in RC-4B/C rat pituitary cells (125I-rat PrRP31); conditions: affinity relative to PrRP31
T1 construct: host or cells: RC-4B/C rat pituitary cell line
T1 sequence (Q64121 1-370): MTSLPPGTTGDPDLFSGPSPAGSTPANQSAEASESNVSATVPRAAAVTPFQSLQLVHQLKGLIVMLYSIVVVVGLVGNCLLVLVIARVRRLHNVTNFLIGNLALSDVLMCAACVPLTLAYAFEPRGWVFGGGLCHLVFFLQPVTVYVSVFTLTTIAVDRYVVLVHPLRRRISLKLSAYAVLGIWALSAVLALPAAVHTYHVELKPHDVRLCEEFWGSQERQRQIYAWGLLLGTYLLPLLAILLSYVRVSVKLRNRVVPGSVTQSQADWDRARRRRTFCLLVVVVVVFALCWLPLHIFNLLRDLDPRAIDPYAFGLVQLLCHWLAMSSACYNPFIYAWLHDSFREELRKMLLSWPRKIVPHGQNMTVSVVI
Method: (§1) Competitive binding experiments were performed according to Motulsky and Neubig (Motulsky, A., et al., “Analyzing radioligand binding data,” Curr Protoc Neurosci, Chapter 7, Unit 7.5, 2002). Binding experiments were conducted with rat pituitary cells, and with Chinese Hamster Ovary (CHO) cells as follows:
The rat pituitary cell line RC-4B/C (ATCC, Manassas, USA) was grown on 24-well plates which had their bottom coated with polyethyleneimine. The cells were grown to the optimal density of 300-450 thousand cells per well. The following agents were used for the experiment: binding buffer (20 mmol·l^−1 HEPES, Ph 7.4; 118 mmol·l^−1 NaCl, 4.7 mmol·l^−1 KCl, 5 mmol·l^−1 MgCl2, 5.5 mmol·l^−1 glucose, 1 mg/ml BSA, 0.1 BPTI), unlabeled analogs of PrRP (i.e. the analog being tested) at a final concentration between 10^−11 to 10^−4 mol·l^−1, and rat ^125I-PrRP31 (labeled with radioactive Iodine-125) at a final concentration of […] (Maixnerová et al., 2011).
(§2) Plates were incubated for 60 minutes at room temperature. After incubation, the cells were solubilized in 0.1 mol/l solution of NaOH, and the radioactivity bound to the cells was counted using a γ-counter. The experiments were performed in duplicate, and repeated at least three times.
(§3) Graph Pad Prism Software (San Diego, Calif., USA) was used for evaluating the competitive binding experiments. Nonlinear regression was performed using a onsite binding model.

[1] = target: T2, human PrRP receptor GPR10 (Homo sapiens, UniProt P49683); test: Competitive binding in CHO cells transfected with human GPR10 (human 125I-PrRP31); conditions: affinity relative to PrRP31
T2 construct: host or cells: CHO cells
T2 sequence (P49683 1-370): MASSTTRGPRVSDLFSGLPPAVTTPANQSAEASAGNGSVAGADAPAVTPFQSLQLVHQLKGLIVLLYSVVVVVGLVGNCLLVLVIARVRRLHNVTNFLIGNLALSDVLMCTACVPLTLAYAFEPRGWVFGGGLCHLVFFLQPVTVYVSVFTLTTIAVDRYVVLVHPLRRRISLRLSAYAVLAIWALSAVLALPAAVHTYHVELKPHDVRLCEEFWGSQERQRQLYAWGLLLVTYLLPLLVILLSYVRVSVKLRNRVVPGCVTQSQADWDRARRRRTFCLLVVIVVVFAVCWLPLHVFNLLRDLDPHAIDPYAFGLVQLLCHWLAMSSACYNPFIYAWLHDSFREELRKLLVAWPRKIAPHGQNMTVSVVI
Method: as §1
CHO cells transfected with human PrRP receptor GPR10 (Perkin Elmer, USA) were grown on 24-well plates coated with polyethyleneimine. The cells were grown to the optimal density of 40-80 thousand cells per well. The following agents were used for the experiment: binding buffer (25 mmol·l^−1 Tris, pH 7.4; 118 mmol·l^−1 NaCl, 10 mmol·l^−1 MgCl2, 10 mmol·l^−1 CaCl2, 5.5 mmol·l^−1 glucose, 0.5 mg/ml BSA), unlabeled analogs of PrRP (i.e. the analog being tested) at a final concentration between 10^−11 to 10^−4 mol·l^−1, and radiolabeled human ^125I-PrRP31 at a final concentration of 5×10^−11 mol·l^−1.
as §2, §3

% of PrRP31, RC-4B/C rat pituitary cells (rat PrRP receptor) [%]	% of PrRP31, GPR10 human receptor transfected in CHO cells [1] [%]	SMILES
68	46	CCCCCCCCCCCCCC(=O)N[C@H](C(=O)N1CCC[C@H]1C(=O)N[C@@H](CC(=O)O)C(=O)N[C@H](C(=O)N[C@@H](CC(N)=O)C(=O)N1CCC[C@H]1C(=O)N[C@@H](C)C(=O)N[C@@H](Cc1c[nH]c2ccccc12)C(=O)N[C@@H](Cc1ccc(O)cc1)C(=O)N[C@H](C(=O)NCC(=O)N[C@@H](CCCNC(=N)N)C(=O)NCC(=O)N[C@@H](C)C(=O)N[C@@H](CCCNC(=N)N)C(=O)N1CCC[C@H]1C(=O)N[C@@H](Cc1ccccc1)C(=O)NCC(=O)N[C@@H](CCCNC(=N)N)C(=O)N[C@@H](Cc1ccccc1)C(N)=O)[C@@H](C)O)[C@@H](C)CC)[C@@H](C)O [Analog 32] (Myristoyl-TPDINPAWYTGRGARPFGRF-NH2)
587	671	CCCCCCCCCCCCCC(=O)N[C@H](C(=O)N1CCC[C@H]1C(=O)N[C@@H](CC(=O)O)C(=O)N[C@H](C(=O)N[C@@H](CC(N)=O)C(=O)N1CCC[C@H]1C(=O)N[C@@H](C)C(=O)N[C@@H](Cc1c[nH]c2ccccc12)C(=O)N[C@@H](Cc1ccc(O)cc1)C(=O)N[C@@H](C)C(=O)N[C@@H](CO)C(=O)N[C@@H](CCCNC(=N)N)C(=O)N1CCC[C@H]1C(=O)N[C@@H](Cc1ccccc1)C(=O)N[C@@H](CCCNC(=N)N)C(=O)N1CCC[C@H]1C(=O)N[C@H](C(=O)NCC(=O)N[C@@H](CCCNC(=N)N)C(=O)N[C@@H](Cc1ccccc1)C(N)=O)C(C)C)[C@@H](C)CC)[C@@H](C)O [Analog 34] (Myristoyl-TPDINPAWYASRPFRPVGRF-NH2)

The next lines start with the molecule.

SMILES	% of PrRP31, RC-4B/C rat pituitary cells (rat PrRP receptor) [%]	% of PrRP31, GPR10 human receptor transfected in CHO cells [1] [%]
CCCCCCCCCCCCCC(=O)N[C@H](C(=O)N1CCC[C@H]1C(=O)N[C@@H](CC(=O)O)C(=O)N[C@H](C(=O)N[C@@H](CC(N)=O)C(=O)N1CCC[C@H]1C(=O)N[C@@H](C)C(=O)N[C@@H](Cc1c[nH]c2ccccc12)C(=O)N[C@@H](Cc1ccc(O)cc1)C(=O)N[C@H](C(=O)NCC(=O)N[C@@H](CCCNC(=N)N)C(=O)N(C)CC(=O)N[C@H](C(=O)N[C@@H](CCCNC(=N)N)C(=O)N1CCC[C@H]1C(=O)N[C@H](C(=O)NCC(=O)N[C@@H](CCCNC(=N)N)C(=O)N[C@@H](Cc1ccccc1)C(N)=O)C(C)C)[C@@H](C)CC)[C@@H](C)O)[C@@H](C)CC)[C@@H](C)O [Analog 28] (Myristoyl-TPDINPAWYTGR[Sar]IRPVGRF-NH2)	1541	125
CC[C@H](C)[C@H](NC(=O)CNC(=O)[C@H](CCCNC(=N)N)NC(=O)[C@H](CO)NC(=O)[C@H](C)N(C)C(=O)[C@H](Cc1ccc(O)cc1)NC(=O)[C@H](Cc1c[nH]c2ccccc12)NC(=O)[C@H](C)NC(=O)[C@@H]1CCCN1C(=O)[C@H](CC(N)=O)NC(=O)[C@@H](NC(=O)[C@H](CC(=O)O)NC(=O)[C@@H]1CCCN1C(=O)[C@@H](N)[C@@H](C)O)[C@@H](C)CC)C(=O)N[C@@H](CCCNC(=N)N)C(=O)N1CCC[C@H]1C(=O)N[C@H](C(=O)NCC(=O)N[C@@H](CCCNC(=N)N)C(=O)N[C@@H](Cc1ccccc1)C(N)=O)C(C)C [Analog 29] (H-TPDINPAWY[NMeA]SRGIRPVGRF-NH2)	10	45
CCCCCCCCCCCCCC(=O)N[C@H](C(=O)N1CCC[C@H]1C(=O)N[C@@H](CC(=O)O)C(=O)N[C@H](C(=O)N[C@@H](CC(N)=O)C(=O)N1CCC[C@H]1C(=O)N[C@@H](C)C(=O)N[C@@H](Cc1c[nH]c2ccccc12)C(=O)N[C@@H](Cc1ccc(O)cc1)C(=O)N(C)[C@@H](C)C(=O)N[C@@H](CO)C(=O)N[C@@H](CCCNC(=N)N)C(=O)NCC(=O)N[C@H](C(=O)N[C@@H](CCCNC(=N)N)C(=O)N1CCC[C@H]1C(=O)N[C@H](C(=O)NCC(=O)N[C@@H](CCCNC(=N)N)C(=O)N[C@@H](Cc1ccccc1)C(N)=O)C(C)C)[C@@H](C)CC)[C@@H](C)CC)[C@@H](C)O [Analog 30] (Myristoyl-TPDINPAWY[NMeA]SRGIRPVGRF-NH2)	1072	185
